# Experimental data taken from patent US20210045385A1, “PYRIDAZINONE-SUBSTITUTED KETOXIMES AS HERBICIDES” (FMC Corporation, priority 2018, published 2021).
# Experiments:
# Format in all cases: in vivo
# [1] = system: Italian ryegrass (Lolium multiflorum); assay: Test A preemergence, visual plant response rating; conditions: for Ryegrass, Italian plant response rating: 125 g ai/ha, preemergence, 0 to 100 scale, 0 no effect, 100 complete control; for Ryegrass, Italian plant response rating (0 to 100 scale): 500 g ai/ha Preemergence, approx. 10 days
# Source text: (§1) Seeds of plant species selected from barnyardgrass (Echinochloa crus-galli), kochia (Kochia scoparia), ragweed (common ragweed, Ambrosia elatior), Italian ryegrass (Lolium multiflorum), foxtail, giant (giant foxtail, Setaria faberii), foxtail, green (green foxtail, Setaria viridis), and pigweed (Amaranthus retroflexus) were planted into a blend of loam soil and sand and treated preemergence with a directed soil spray using test chemicals formulated in a non-phytotoxic solvent mixture which included a surfactant.
# (§2) At the same time, plants selected from these weed species and also wheat (Triticum aestivum), corn (Zea mays), blackgrass (Alopecurus myosuroides), and galium (catchweed bedstraw, Galium aparine) were planted in pots containing the same blend of loam soil and sand and treated with postemergence applications of test chemicals formulated in the same manner. Plants ranged in height from 2 to 10 cm and were in the one- to two-leaf stage for the postemergence treatment. Treated plants and untreated controls were maintained in a greenhouse for approximately 10 days, after which time all treated plants were compared to untreated controls and visually evaluated for injury. Plant response ratings, summarized in Table A, are based on a 0 to 100 scale where 0 is no effect and 100 is complete control. A dash (-) response means no test result.
# [2] = system: barnyardgrass (Echinochloa crus-galli); assay: Test A preemergence, visual plant response rating; conditions: for Barnyardgrass plant response rating: 125 g ai/ha, preemergence, 0 to 100 scale, 0 no effect, 100 complete control; for Barnyardgrass plant response rating (0 to 100 scale): 500 g ai/ha Preemergence, approx. 10 days
# Source text: as §1, §2
# [3] = system: foxtail, giant (giant foxtail, Setaria faberii); assay: Test A preemergence, visual plant response rating; conditions: for Foxtail, Giant plant response rating: 125 g ai/ha, preemergence, 0 to 100 scale, 0 no effect, 100 complete control; for Foxtail, Giant plant response rating (0 to 100 scale): 500 g ai/ha Preemergence, approx. 10 days
# Source text: as §1, §2
# [4] = system: kochia (Kochia scoparia); assay: Test A preemergence, visual plant response rating; conditions: for Kochia plant response rating: 125 g ai/ha, preemergence, 0 to 100 scale, 0 no effect, 100 complete control; for Kochia plant response rating (0 to 100 scale): 500 g ai/ha Preemergence, approx. 10 days
# Source text: as §1, §2
# [5] = system: pigweed (Amaranthus retroflexus); assay: Test A preemergence, visual plant response rating; conditions: for Pigweed plant response rating: 125 g ai/ha, preemergence, 0 to 100 scale, 0 no effect, 100 complete control; for Pigweed plant response rating (0 to 100 scale): 500 g ai/ha Preemergence, approx. 10 days
# Source text: as §1, §2
# [6] = system: Italian ryegrass (Lolium multiflorum); assay: Test A postemergence, visual plant response rating; conditions: for Ryegrass, Italian plant response rating (0 to 100 scale): 500 g ai/ha, postemergence, 0 is no effect, 100 is complete control; for Ryegrass, Italian plant response rating: Postemergence, 125 g ai/ha, 0 to 100 scale (0 no effect, 100 complete control)
# Source text: as §1, §2
# [7] = system: barnyardgrass (Echinochloa crus-galli); assay: Test A postemergence, visual plant response rating; conditions: for Barnyardgrass plant response rating (0 to 100 scale): 500 g ai/ha, postemergence, 0 is no effect, 100 is complete control; for Barnyardgrass plant response rating: Postemergence, 125 g ai/ha, 0 to 100 scale (0 no effect, 100 complete control)
# Source text: as §1, §2
# [8] = system: blackgrass (Alopecurus myosuroides); assay: Test A postemergence, visual plant response rating; conditions: for Blackgrass plant response rating (0 to 100 scale): 500 g ai/ha, postemergence, 0 is no effect, 100 is complete control; for Blackgrass plant response rating: Postemergence, 125 g ai/ha, 0 to 100 scale (0 no effect, 100 complete control)
# Source text: as §1, §2
# [9] = system: corn (Zea mays); assay: Test A postemergence, visual plant response rating; conditions: for Corn plant response rating (0 to 100 scale): 500 g ai/ha, postemergence, 0 is no effect, 100 is complete control; for Corn plant response rating: Postemergence, 125 g ai/ha, 0 to 100 scale (0 no effect, 100 complete control)
# Source text: as §1, §2
# [10] = system: foxtail, giant (giant foxtail, Setaria faberii); assay: Test A postemergence, visual plant response rating; conditions: for Foxtail, Giant plant response rating (0 to 100 scale): 500 g ai/ha, postemergence, 0 is no effect, 100 is complete control; for Foxtail, Giant plant response rating: Postemergence, 125 g ai/ha, 0 to 100 scale (0 no effect, 100 complete control)
# Source text: as §1, §2
# [11] = system: galium (catchweed bedstraw, Galium aparine); assay: Test A postemergence, visual plant response rating; conditions: for Galium plant response rating (0 to 100 scale): 500 g ai/ha, postemergence, 0 is no effect, 100 is complete control; for Galium plant response rating: Postemergence, 125 g ai/ha, 0 to 100 scale (0 no effect, 100 complete control)
# Source text: as §1, §2
# [12] = system: kochia (Kochia scoparia); assay: Test A postemergence, visual plant response rating; conditions: for Kochia plant response rating (0 to 100 scale): 500 g ai/ha, postemergence, 0 is no effect, 100 is complete control; for Kochia plant response rating: Postemergence, 125 g ai/ha, 0 to 100 scale (0 no effect, 100 complete control)
# Source text: as §1, §2
# [13] = system: pigweed (Amaranthus retroflexus); assay: Test A postemergence, visual plant response rating; conditions: for Pigweed plant response rating (0 to 100 scale): 500 g ai/ha, postemergence, 0 is no effect, 100 is complete control; for Pigweed plant response rating: Postemergence, 125 g ai/ha, 0 to 100 scale (0 no effect, 100 complete control)
# Source text: as §1, §2
# [14] = system: ragweed (common ragweed, Ambrosia elatior); assay: Test A postemergence, visual plant response rating; conditions: for Ragweed plant response rating (0 to 100 scale): 500 g ai/ha, postemergence, 0 is no effect, 100 is complete control; for Ragweed plant response rating: Postemergence, 125 g ai/ha, 0 to 100 scale (0 no effect, 100 complete control)
# Source text: as §1, §2
# [15] = system: wheat (Triticum aestivum); assay: Test A postemergence, visual plant response rating; conditions: for Wheat plant response rating (0 to 100 scale): 500 g ai/ha, postemergence, 0 is no effect, 100 is complete control; for Wheat plant response rating: Postemergence, 125 g ai/ha, 0 to 100 scale (0 no effect, 100 complete control)
# Source text: as §1, §2
# [16] = system: barnyardgrass (Echinochloa crus-galli); assay: Test B flooded paddy test, visual plant response rating; conditions: 250 g ai/ha, Flood, applied to paddy water, 2-leaf stage, evaluated after 13 to 15 days
# Protocol: (§3) Plant species in the flooded paddy test selected from rice (Oryza sativa), sedge, umbrella (small-flower umbrella sedge, Cyperus difformis), ducksalad (Heteranhera limosa), and barnyardgrass (Echinochloa crus-galli) were grown to the 2-leaf stage for testing. At time of treatment, test pots were flooded to 3 cm above the soil surface treated by application of test compounds directly to the paddy water, and then maintained at that water depth for the duration of the test. Treated plants and controls were maintained in a greenhouse for 13 to 15 days, after which time all species were compared to controls and visually evaluated. […] A dash (-) response means no test result.
# [17] = system: ducksalad (Heteranhera limosa); assay: as above; conditions: 250 g ai/ha, Flood, applied to paddy water, 2-leaf stage, evaluated after 13 to 15 days
# Protocol: as §3
# [18] = system: rice (Oryza sativa); assay: as above; conditions: 250 g ai/ha, Flood, applied to paddy water, 2-leaf stage, evaluated after 13 to 15 days
# Protocol: as §3
# [19] = system: sedge, umbrella (small-flower umbrella sedge, Cyperus difformis); assay: as above; conditions: 250 g ai/ha, Flood, applied to paddy water, 2-leaf stage, evaluated after 13 to 15 days
# Protocol: as §3
SMILES,"Ryegrass, Italian plant response rating [1]","Ryegrass, Italian plant response rating (0 to 100 scale) [1]",Barnyardgrass plant response rating [2],Barnyardgrass plant response rating (0 to 100 scale) [2],"Foxtail, Giant plant response rating [3]","Foxtail, Giant plant response rating (0 to 100 scale) [3]",Kochia plant response rating [4],Kochia plant response rating (0 to 100 scale) [4],Pigweed plant response rating [5],Pigweed plant response rating (0 to 100 scale) [5],"Ryegrass, Italian plant response rating (0 to 100 scale) [6]","Ryegrass, Italian plant response rating [6]",Barnyardgrass plant response rating (0 to 100 scale) [7],Barnyardgrass plant response rating [7],Blackgrass plant response rating (0 to 100 scale) [8],Blackgrass plant response rating [8],Corn plant response rating (0 to 100 scale) [9],Corn plant response rating [9],"Foxtail, Giant plant response rating (0 to 100 scale) [10]","Foxtail, Giant plant response rating [10]",also measured
CON=C(c1cc(Cl)ccc1Cl)c1c(O)c(C)nn(C)c1=O [Compound 98],80,90,50,60,60,70,60,60,90,100,80,80,80,50,90,80,20,0,80,40,"Galium plant response rating (0 to 100 scale) [11]: 100; Galium plant response rating [11]: 80; Kochia plant response rating (0 to 100 scale) [12]: 80; Kochia plant response rating [12]: 60; Pigweed plant response rating (0 to 100 scale) [13]: 80; Pigweed plant response rating [13]: 70; Ragweed plant response rating (0 to 100 scale) [14]: 90; Ragweed plant response rating [14]: 80; Wheat plant response rating (0 to 100 scale) [15]: 20; Wheat plant response rating [15]: 0; Plant response rating, Barnyardgrass (0 to 100 scale, 0 is no effect, 100 is complete control) [16]: 0; Plant response rating, Ducksalad (0 to 100 scale, 0 is no effect, 100 is complete control) [17]: 0; Plant response rating, Rice (0 to 100 scale, 0 is no effect, 100 is complete control) [18]: 0; Plant response rating, Sedge, Umbrella (0 to 100 scale, 0 is no effect, 100 is complete control) [19]: 0"
Cc1nn(C)c(=O)c(/C(=N/OC(C)C)c2ccc(F)c3ccccc23)c1O [Compound 88],90,100,70,90,90,100,10,90,100,100,100,100,80,50,90,80,30,10,90,80,"Galium plant response rating (0 to 100 scale) [11]: 90; Galium plant response rating [11]: 90; Kochia plant response rating (0 to 100 scale) [12]: 70; Kochia plant response rating [12]: 60; Pigweed plant response rating (0 to 100 scale) [13]: 100; Pigweed plant response rating [13]: 90; Ragweed plant response rating (0 to 100 scale) [14]: 90; Ragweed plant response rating [14]: 100; Wheat plant response rating (0 to 100 scale) [15]: 50; Wheat plant response rating [15]: 10; Plant response rating, Barnyardgrass (0 to 100 scale, 0 is no effect, 100 is complete control) [16]: 0; Plant response rating, Ducksalad (0 to 100 scale, 0 is no effect, 100 is complete control) [17]: 0; Plant response rating, Rice (0 to 100 scale, 0 is no effect, 100 is complete control) [18]: 0; Plant response rating, Sedge, Umbrella (0 to 100 scale, 0 is no effect, 100 is complete control) [19]: 0"
CO/N=C(/c1c(OC(C)=O)c(Cl)nn(C)c1=O)c1cccc2ccccc12 [Compound 132],0,0,70,80,40,90,90,90,80,80,20,10,60,20,60,40,10,10,60,40,"Galium plant response rating (0 to 100 scale) [11]: 100; Galium plant response rating [11]: 90; Kochia plant response rating (0 to 100 scale) [12]: 80; Kochia plant response rating [12]: 60; Pigweed plant response rating (0 to 100 scale) [13]: 70; Pigweed plant response rating [13]: 40; Ragweed plant response rating (0 to 100 scale) [14]: 90; Ragweed plant response rating [14]: 90; Wheat plant response rating (0 to 100 scale) [15]: 0; Wheat plant response rating [15]: 0; Plant response rating, Barnyardgrass (0 to 100 scale, 0 is no effect, 100 is complete control) [16]: 0; Plant response rating, Ducksalad (0 to 100 scale, 0 is no effect, 100 is complete control) [17]: 25; Plant response rating, Rice (0 to 100 scale, 0 is no effect, 100 is complete control) [18]: 0; Plant response rating, Sedge, Umbrella (0 to 100 scale, 0 is no effect, 100 is complete control) [19]: 15"
